Test results: ChEMBL document CHEMBL1201862, “PubChem BioAssay data set” (2004)
The source made the active and inactive calls.

Legend:
[1] = target: T1, Sentrin-specific protease 8 (Homo sapiens, UniProt Q96LD8); type: functional
T1 sequence (Q96LD8 whole entry): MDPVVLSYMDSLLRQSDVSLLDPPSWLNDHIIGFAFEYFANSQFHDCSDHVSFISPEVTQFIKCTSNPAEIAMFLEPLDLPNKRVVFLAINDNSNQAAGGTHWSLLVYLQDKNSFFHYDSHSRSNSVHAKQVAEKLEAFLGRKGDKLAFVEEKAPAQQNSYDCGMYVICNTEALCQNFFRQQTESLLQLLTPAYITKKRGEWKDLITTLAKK

[2] = target: T1, Sentrin-specific protease 8; type: functional; remark: listed apart in the source
Beta-lactamase [3] = target: Beta-lactamase (Pseudomonas aeruginosa, UniProt Q79MP6);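 note: biochemical dose-response test of metallo-beta-lactamase enzyme inhibition, read out by epi-absorbance; purified recombinant IMP-1 metallo-beta-lactamase with nitrocefin as substrate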
Chain of Beta-lactamase (Pseudomonas aeruginosa, UniProt Q79MP6) (Q79MP6 whole entry): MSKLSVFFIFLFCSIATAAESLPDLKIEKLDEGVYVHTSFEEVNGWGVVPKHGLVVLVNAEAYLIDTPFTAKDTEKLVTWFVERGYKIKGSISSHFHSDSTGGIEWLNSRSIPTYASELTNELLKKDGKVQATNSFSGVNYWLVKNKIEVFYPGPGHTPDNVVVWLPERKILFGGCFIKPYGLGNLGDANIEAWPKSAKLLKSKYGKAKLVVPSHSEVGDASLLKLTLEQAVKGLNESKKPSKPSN

Beta-lactamase [4] = target: Beta-lactamase (Salmonella choleraesuis (strain SC-B67), UniProt Q5J463)
Chain of Beta-lactamase (Salmonella choleraesuis (strain SC-B67), UniProt Q5J463) (Q5J463 whole entry): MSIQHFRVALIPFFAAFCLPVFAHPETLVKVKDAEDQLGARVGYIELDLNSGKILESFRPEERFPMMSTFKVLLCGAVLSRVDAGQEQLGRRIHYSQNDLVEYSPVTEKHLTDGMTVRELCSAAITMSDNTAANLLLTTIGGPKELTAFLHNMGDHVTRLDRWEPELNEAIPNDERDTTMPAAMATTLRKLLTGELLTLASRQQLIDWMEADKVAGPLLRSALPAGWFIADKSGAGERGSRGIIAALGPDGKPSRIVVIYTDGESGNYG

[5] = target: Fructose-bisphosphate aldolase (Mycobacterium tuberculosis, UniProt P9WQA3); test: Fluorescence-based biochemical high throughput dose response assay for inhibitors of the fructose-bisphosphate aldolase (FBA) of M. tuberculosis.; type: functional
Chain of Fructose-bisphosphate aldolase (P9WQA3 whole entry): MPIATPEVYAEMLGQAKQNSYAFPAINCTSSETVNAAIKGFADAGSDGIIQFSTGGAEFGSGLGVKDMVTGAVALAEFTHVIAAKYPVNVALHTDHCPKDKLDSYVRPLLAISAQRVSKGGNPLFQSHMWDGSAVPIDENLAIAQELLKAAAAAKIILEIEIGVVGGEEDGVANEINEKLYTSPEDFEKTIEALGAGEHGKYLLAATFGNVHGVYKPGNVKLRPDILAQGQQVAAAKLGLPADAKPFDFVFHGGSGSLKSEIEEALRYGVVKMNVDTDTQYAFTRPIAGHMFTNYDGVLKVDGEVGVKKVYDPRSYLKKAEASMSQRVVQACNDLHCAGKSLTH

[6] = target: ADP-ribosylation factor GTPase-activating protein 1 (Rattus norvegicus, UniProt Q62848); test: Fluorescence polarization-based biochemical high throughput dose response screening assay to identify inhibitors of ADP-ribosylation factor GTPase activating protein 1 (ARFGAP1).; type: functional
Chain of ADP-ribosylation factor GTPase-activating protein 1 (Q62848 whole entry): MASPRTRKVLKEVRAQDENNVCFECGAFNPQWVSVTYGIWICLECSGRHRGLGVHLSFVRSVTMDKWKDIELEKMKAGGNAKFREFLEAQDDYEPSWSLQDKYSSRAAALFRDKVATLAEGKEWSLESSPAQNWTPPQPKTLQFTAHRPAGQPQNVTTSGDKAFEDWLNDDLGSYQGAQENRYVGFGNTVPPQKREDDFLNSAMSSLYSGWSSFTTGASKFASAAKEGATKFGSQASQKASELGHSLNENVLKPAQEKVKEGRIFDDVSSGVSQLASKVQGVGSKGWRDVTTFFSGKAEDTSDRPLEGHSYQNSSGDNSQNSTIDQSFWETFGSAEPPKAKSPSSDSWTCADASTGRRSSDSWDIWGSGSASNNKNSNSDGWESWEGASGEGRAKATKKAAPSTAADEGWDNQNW

Melanocortin receptor 4 = Melanocortin receptor 4 (Homo sapiens, UniProt P32245); type: functional, cell-based;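 note: Cell-based assay with luminescence read-out, confirmatory dose-response testing for agonist activity of biased ligands at MC4R; human U2OS cells with tagged receptor and beta-arrestin; potency of agonists that increase receptor coupling to beta-arrestin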
Chain of Melanocortin receptor 4 (P32245 whole entry): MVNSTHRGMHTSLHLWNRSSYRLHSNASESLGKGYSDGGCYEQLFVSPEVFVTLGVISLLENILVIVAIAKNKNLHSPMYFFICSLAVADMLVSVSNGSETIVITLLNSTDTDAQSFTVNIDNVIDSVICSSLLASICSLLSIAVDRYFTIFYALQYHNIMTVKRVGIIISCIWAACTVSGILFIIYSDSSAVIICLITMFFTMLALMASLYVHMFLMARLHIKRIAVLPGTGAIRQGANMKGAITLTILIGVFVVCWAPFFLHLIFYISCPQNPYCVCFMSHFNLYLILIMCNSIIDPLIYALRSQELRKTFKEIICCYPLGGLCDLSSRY

[7] = target: T2, Methionyl-tRNA synthetase, putative (Trypanosoma brucei brucei, UniProt Q38C91); type: functional, Trypanosoma brucei brucei strain 927/4 GUTat10.1
T2 sequence (Q38C91 whole entry): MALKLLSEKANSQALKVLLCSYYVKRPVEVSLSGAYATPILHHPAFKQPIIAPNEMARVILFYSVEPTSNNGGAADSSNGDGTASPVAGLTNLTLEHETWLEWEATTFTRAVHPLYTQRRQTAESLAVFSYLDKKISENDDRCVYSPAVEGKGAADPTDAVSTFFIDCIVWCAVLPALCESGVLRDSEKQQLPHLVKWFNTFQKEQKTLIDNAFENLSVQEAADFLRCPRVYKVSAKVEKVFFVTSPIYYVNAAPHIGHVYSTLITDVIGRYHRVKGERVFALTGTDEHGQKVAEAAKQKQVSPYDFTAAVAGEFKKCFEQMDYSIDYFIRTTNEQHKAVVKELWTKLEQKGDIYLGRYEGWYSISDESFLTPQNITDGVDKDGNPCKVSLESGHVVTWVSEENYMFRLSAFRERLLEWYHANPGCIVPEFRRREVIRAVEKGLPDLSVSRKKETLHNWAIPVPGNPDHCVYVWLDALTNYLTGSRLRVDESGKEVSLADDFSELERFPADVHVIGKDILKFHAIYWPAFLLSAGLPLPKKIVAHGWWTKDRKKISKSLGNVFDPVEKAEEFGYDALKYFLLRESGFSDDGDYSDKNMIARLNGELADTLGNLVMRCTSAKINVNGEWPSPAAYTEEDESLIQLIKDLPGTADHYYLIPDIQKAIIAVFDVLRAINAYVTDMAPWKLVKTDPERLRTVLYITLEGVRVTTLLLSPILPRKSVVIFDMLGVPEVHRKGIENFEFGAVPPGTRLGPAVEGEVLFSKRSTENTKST

[8] = Counterscreen for inhibitors of Trypanosoma brucei methionyl tRNA synthetase (MetRS): Luminescence-based cell-based high throughput dose response assay to identify compounds that are cytotoxic to Jurkat human T lymphocyte cells.; type: functional
[9] = target: T2, Methionyl-tRNA synthetase, putative; type: functional, Trypanosoma brucei brucei strain 927/4 GUTat10.1; remark: listed apart in the source
[10] = inhibitors of HIV Env-driven cell fusion, dose response, cherry-pick (AID 652057); type: functional, cell-based
[11] = CEM21 lymphoblast cell cytotoxicity, dose response, cytotoxicity control for viral fusion inhibitor project, CellTiter-Glo luminescence, cherry-picked (AID 652042); type: functional, cell-based;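 note: potency for signal decrease meaning cytotoxicity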
[12] = ZM109 Env clade C HIV-1 fusion inhibitors, dose response, HeLa effector, CEM target cells, luciferase, cherry-pick (AID 652058); type: functional, cell-based
[13] = off-target signal loss in HeLa-CEM21 co-culture – HeLa F-luc CTL cells, cherry-picked, counter-screen for HIV-1 Env fusion inhibitor project, dose response (AID 652040); type: functional, cell-based;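 note: potency for signal decrease marking cytotoxic or nonspecific inhibition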
[14] = inhibitors of clade B AD8 Env fusion, dose response, cell-based, cherry-pick (AID 652062); type: functional;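 note: luciferase signal from cell-cell fusion driven by HIV-1 clade B AD8 Env; potency is for inhibitors of fusion seen as a drop in luminescence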
[15] = target: Long-chain-fatty-acid--AMP ligase FadD28 (Mycobacterium tuberculosis, UniProt P9WQ59); test: Fluorescence polarization aasay to screen for inhibitors that compete for the binding of FadD28 to a bisubstrate Measured in Biochemical System Using Plate Reader - 2147-01_Inhibitor_Dose_CherryPick_Activity.; type: functional, Mycobacterium tuberculosis H37Rv
Chain of Long-chain-fatty-acid--AMP ligase FadD28 (P9WQ59 whole entry): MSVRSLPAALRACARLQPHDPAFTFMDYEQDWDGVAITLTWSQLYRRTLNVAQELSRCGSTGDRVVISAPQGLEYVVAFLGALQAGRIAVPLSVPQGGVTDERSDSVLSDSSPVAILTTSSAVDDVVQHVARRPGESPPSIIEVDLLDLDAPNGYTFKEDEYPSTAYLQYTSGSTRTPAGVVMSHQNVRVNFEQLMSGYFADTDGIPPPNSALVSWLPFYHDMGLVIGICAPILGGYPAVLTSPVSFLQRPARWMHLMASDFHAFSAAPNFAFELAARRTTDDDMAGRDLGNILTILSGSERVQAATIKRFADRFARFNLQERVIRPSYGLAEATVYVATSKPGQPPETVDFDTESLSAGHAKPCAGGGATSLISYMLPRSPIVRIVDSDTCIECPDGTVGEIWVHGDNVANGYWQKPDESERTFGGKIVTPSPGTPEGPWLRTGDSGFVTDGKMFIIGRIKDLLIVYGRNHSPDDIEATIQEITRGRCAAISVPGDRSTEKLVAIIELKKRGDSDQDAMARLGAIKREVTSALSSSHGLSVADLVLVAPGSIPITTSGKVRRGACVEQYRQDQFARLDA

[16] = target: T3, Endoribonuclease toxin MazF (Escherichia coli K-12, UniProt P0AE70); test: MazF toxin RNase activators, dose response, biochemical, fluorescence, single-stranded RNA substrate, uHTS hits (AID 588481); type: functional
T3 sequence (P0AE70 whole entry): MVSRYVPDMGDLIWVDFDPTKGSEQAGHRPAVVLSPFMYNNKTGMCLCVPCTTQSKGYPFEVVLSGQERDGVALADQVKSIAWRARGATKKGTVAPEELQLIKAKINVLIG

[17] = target: Heat shock protein HSP 90-alpha (Homo sapiens, UniProt P07900); type: functional, organism-based
[18] = target: T3, Endoribonuclease toxin MazF; test: fluorescent RNA oligo signal without MazF, dose response, counter-screen for MazEF activator project, biochemical, fluorescence, single-stranded RNase substrate (AID 588502); type: functional
[19] = target: T4, Probable nicotinate-nucleotide adenylyltransferase (Staphylococcus aureus (strain N315), UniProt P65502); type: functional, Staphylococcus aureus subsp. aureus N315;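 for IC50 Mean: confirmatory dose-response retesting of NadD inhibitor hits first found in an ultra-high-throughput screen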
T4 sequence (P65502 whole entry): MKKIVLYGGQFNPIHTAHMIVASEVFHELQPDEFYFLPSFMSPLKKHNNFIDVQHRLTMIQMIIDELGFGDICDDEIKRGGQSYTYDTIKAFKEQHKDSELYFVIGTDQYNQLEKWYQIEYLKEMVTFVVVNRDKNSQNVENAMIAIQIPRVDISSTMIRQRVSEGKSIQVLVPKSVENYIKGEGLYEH

[20] = target: T4, Probable nicotinate-nucleotide adenylyltransferase; type: functional, Staphylococcus aureus subsp. aureus N315; details: read-out: IC50_Mean
Cytochrome P450 2D6 = Cytochrome P450 2D6 (Homo sapiens, UniProt P10635);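 note: CYP2D6 member of a cytochrome P450 panel assay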
Chain of Cytochrome P450 2D6 (P10635 whole entry): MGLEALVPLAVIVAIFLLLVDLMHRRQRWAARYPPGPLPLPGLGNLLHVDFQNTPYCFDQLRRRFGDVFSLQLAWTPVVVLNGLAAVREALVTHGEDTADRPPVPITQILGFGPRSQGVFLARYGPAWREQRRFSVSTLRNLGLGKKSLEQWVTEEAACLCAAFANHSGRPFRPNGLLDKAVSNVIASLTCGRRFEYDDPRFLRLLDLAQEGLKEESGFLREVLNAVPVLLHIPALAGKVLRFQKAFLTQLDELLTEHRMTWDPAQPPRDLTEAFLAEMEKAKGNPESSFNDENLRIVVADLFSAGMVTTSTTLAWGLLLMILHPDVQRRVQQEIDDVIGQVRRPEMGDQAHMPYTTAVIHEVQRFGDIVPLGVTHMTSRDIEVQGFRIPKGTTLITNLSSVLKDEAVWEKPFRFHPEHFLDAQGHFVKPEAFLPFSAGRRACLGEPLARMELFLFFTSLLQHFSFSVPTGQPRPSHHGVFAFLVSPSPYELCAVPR

Cytochrome P450 1A2 = target: T5, Cytochrome P450 1A2 (Homo sapiens, UniProt P05177);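 note: PubChem cytochrome P450 panel assay, CYP1A2 panel member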
T5 sequence (P05177 whole entry): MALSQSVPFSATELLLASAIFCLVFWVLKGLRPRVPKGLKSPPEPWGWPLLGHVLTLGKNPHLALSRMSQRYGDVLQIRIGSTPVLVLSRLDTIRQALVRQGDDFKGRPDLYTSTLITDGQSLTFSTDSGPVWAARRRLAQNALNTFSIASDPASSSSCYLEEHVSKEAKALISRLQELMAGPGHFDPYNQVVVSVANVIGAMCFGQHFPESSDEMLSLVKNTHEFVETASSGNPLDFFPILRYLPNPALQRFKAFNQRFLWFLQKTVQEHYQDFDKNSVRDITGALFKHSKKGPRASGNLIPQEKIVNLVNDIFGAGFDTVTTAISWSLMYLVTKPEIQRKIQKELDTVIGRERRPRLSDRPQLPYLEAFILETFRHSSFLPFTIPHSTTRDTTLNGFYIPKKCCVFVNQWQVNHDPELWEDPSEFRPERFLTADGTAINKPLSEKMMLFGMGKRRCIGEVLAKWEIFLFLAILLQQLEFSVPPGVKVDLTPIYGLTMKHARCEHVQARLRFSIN

Cytochrome P450 2C9 = Cytochrome P450 2C9 (Homo sapiens, UniProt P11712)
Chain of Cytochrome P450 2C9 (P11712 whole entry): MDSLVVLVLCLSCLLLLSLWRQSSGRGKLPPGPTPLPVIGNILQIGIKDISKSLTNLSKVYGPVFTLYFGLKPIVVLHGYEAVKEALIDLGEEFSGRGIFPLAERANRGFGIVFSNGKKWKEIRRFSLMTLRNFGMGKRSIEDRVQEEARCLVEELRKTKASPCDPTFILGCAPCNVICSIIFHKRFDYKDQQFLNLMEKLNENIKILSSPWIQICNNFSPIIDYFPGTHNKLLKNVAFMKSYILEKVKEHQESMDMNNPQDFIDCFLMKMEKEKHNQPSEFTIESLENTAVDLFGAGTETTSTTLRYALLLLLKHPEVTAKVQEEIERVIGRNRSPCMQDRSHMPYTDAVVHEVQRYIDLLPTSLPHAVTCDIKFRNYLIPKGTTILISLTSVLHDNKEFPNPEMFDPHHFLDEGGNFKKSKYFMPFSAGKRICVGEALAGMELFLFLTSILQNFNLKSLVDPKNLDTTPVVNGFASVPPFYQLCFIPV

cells [21] = type: functional, cell-based
[22] = target: T6, Trace amine-associated receptor 1 (Homo sapiens, UniProt Q96RJ0); test: Fluorescence-based cell-based high throughput dose response assay to identify agonists of the human trace amine associated receptor 1 (TAAR1).; type: functional
T6 sequence (Q96RJ0 whole entry): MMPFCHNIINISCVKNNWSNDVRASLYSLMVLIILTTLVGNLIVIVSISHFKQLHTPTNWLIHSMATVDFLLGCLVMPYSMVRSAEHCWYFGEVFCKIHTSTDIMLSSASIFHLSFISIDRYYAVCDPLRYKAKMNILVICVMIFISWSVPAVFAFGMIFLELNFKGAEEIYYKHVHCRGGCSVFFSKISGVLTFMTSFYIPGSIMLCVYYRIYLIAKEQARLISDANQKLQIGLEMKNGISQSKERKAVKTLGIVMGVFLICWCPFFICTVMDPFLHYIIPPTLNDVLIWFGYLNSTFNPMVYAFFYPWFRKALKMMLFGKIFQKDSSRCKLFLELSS

[23] = target: T6, Trace amine-associated receptor 1; test: Counterscreen for agonists of the human trace amine associated receptor 1 (hTAAR1): Fluorescence-based cell-based high throughput dose response assay to identify hTAAR1 agonist that also desensitize TAAR1 receptor response.; type: functional
cells [24] = type: functional, cell-based; remark: listed apart in the source
Vero = test: Vero cell toxicity, dose response, cytotoxicity control, plate reader, cherry-pick samples (AID 687020); type: functional, cell-based; details: Chlorocebus sabaeus
H9c2 = test: cells; type: functional, cell-based; details: Rattus norvegicus, H9c2, Myocardium
[25] = cytotoxicity in HPDE-C7 cells, cell-based, fluorescence, HTS (AID 430); type: functional; details: Homo sapiens
[26] = cytotoxicity in KRAS-transformed pancreatic duct cells, primary screen, cell-based, fluorescence, HTS (AID 431); type: functional; details: Homo sapiens;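 note: cell line used: HPDE-C7K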
[27] = growth suppression of PTEN-null colon cells, dose response, cell-based, HCT116 PTEN knockout (AID 1047); type: functional;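 note: HCT116 colon tumor cells with PTEN knocked out; cells exposed to compound for 60 hours before readout; potency for loss of cell viability measured by luminescence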
[28] = growth suppression of beta-catenin-knockout colon cells, dose response, cell-based, HCT116, human colon tumor (AID 1045); type: functional;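 note: HCT116 colon tumor cells with beta catenin knocked out; cells exposed to compound for 60 hours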
Genome polyprotein = Genome polyprotein (dengue virus type 2, UniProt P29990); test: Dengue-2 NS5 methyltransferase inhibitors, primary screen, biochemical, confirmation dose response (AID 588689); type: functional
Chain of Genome polyprotein (P29990 2492-3391 limits assumed): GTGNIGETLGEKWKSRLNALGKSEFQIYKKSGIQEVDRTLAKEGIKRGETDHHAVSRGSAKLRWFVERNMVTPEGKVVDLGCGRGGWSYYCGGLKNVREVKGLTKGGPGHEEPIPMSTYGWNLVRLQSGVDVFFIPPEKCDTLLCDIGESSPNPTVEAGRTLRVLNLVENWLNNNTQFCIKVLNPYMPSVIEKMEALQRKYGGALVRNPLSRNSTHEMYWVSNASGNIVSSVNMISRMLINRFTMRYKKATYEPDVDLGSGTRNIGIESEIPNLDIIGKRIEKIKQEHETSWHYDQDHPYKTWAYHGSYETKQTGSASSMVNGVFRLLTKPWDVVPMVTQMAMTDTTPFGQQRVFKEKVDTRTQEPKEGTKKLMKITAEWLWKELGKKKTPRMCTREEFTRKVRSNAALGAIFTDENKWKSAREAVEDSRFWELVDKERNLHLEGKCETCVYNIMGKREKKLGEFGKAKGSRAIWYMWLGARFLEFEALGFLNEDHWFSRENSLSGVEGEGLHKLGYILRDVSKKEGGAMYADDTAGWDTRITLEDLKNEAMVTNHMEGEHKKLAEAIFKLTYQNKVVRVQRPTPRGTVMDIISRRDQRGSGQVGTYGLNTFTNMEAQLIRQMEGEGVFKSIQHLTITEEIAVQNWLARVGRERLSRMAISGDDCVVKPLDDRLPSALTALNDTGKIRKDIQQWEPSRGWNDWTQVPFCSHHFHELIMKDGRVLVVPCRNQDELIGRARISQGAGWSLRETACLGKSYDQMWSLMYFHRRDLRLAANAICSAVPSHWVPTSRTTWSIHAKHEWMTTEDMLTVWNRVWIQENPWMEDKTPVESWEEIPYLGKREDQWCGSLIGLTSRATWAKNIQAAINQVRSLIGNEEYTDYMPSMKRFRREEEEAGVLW

## O=C(c1ccccc1)[C@@H]1[C@@H](C(=O)c2ccc(F)cc2)[C@@]2(C(=O)Nc3ccccc32)[C@H]2c3ccccc3C=CN12
[1]
  IC50: 12.1 µM (active)
[2]
  IC50: 1.21 µM (active)

## O=C(CCN1C(=O)/C(=C/c2ccc(Cl)cc2)SC1=S)NCCCn1ccnc1
Beta-lactamase [3]
  IC50: > 59.6 µM (inactive)
Beta-lactamase [4]
  IC50: > 59.6 µM (inactive)

## CSc1nccc(Oc2ccccc2Cl)n1
[5]
  IC50: > 9.99 µM (inactive)

## Cc1ccc(-c2nn(-c3ccccc3)cc2/C=C/C(=O)Nc2nccs2)cc1
[6]
  IC50: 20.3 µM (inactive)

## NC(Cc1ccc(C(F)(F)F)cc1)c1csc(NC(=O)Nc2ccccc2)n1 (stereo not drawn)
Melanocortin receptor 4
  EC50: > 89.2 µM (inactive)
[7]
  IC50: 1.47 µM (active)
[8]
  IC50: 24.7 µM (inactive)
[9]
  IC50: 2.39 µM (active)
[10]
  AC50: 2.85 µM (active)
[11]
  AC50: 11.3 µM (active)
[12]
  AC50: 2.21 µM (active)
[13]
  AC50: 3.13 µM (active)
[14]
  AC50: 8.46 µM (active)

## COc1cccc(NC(=O)CC(=O)c2ccc([N+](=O)[O-])cc2)c1
[15]
  AC50: 94.1 µM (active)

## COc1ccc2oc(=O)c(-c3csc(Nc4cccc(O)c4)n3)cc2c1
[16]
  EC50: > 99 µM (inactive)
[17]
  AC50: 7.16 µM (active)
[18]
  EC50: > 99 µM (inactive)
Melanocortin receptor 4
  EC50: > 89.2 µM (inactive)
[19]
  IC50: 19.2 µM (active)
[20]
  IC50: 29 µM (active)

## CCOc1ccc(C(O)(CCC(C)C)C(CN2CCOCC2)c2ccccc2)cc1 (stereo not drawn)
[10]
  AC50: 3.6 µM (active)
[11]
  AC50: 26.8 µM (active)
[12]
  AC50: 3.65 µM (active)
[13]
  AC50: 5.42 µM (active)
[14]
  AC50: 9.83 µM (active)

## O=C(Nc1ccc2c(c1)OCCO2)c1cccs1
[5]
  IC50: > 9.98 µM (inactive)

## COc1ccccc1NCc1nnc(SCC(=O)N/N=C/c2ccco2)n1-c1ccc(Cl)cc1Cl
[15]
  AC50: > 100 µM (inactive)
Cytochrome P450 2D6
  AC50: 28.2 µM (inconclusive)
Cytochrome P450 1A2
  AC50: 28.2 µM (inconclusive)
Cytochrome P450 2C9
  AC50: 35.5 µM (inconclusive)

## CCCCC(CC)CNC(=O)C1C2C=CC(C2)C1C(=O)O (stereo not drawn)
Cells [21]
  IC50: > 29.9 µM (inactive)
[22]
  EC50: > 29.9 µM (inactive)
[23]
  IC50: > 29.9 µM (inactive)
Cells [24]
  EC50: > 29.9 µM (inactive)

## Cc1ccc(NC(=O)Cn2cccc2C2=NC(c3ccccc3)CO2)cc1C (stereo not drawn)
Vero
  AC50: 27.9 µM (active)

## COC(=O)C[C@H]1c2cc(C(F)(F)F)ccc2S(=O)(=O)N1Cc1ccc(OC)cc1
Vero
  AC50: 34.6 µM (active)

## COC(=O)c1cccc(Nc2nc(-c3cccnc3)nc3ccccc23)c1
H9c2
  IC50: 4.96 µM (active)
[6]
  IC50: 38.3 µM (inactive)

## Cc1cccc(NS(=O)(=O)c2ccc3nc(-c4ccccc4)[nH]c3c2)c1C
[7]
  IC50: 119 µM (inactive)
[9]
  IC50: 14.6 µM (inactive)

## O=C(CCN1CCC(c2ccccc2)C1)c1cccs1 (stereo not drawn)
[25]
  EC50: > 20 µM (not active)
[26]
  EC50: > 20 µM (not active)
[27]
  EC50: 34.1 µM (active)
[28]
  EC50: 29.3 µM (active)
Cells [21]
  IC50: > 29.9 µM (inactive)
[22]
  EC50: 0.157 µM (active)
[23]
  IC50: 1.49 µM (active)
Cells [24]
  EC50: > 29.9 µM (inactive)

## O=C1CC(Nc2ccc([N+](=O)[O-])cc2)=NN1c1c(Cl)cc(Cl)cc1Cl
Genome polyprotein
  IC50: 48.4 µM (active)
[1]
  IC50: 12.3 µM (active)
[2]
  IC50: 16 µM (active)
